In patent US20160022724A1, “METHODS FOR TREATING PARAMYXOVIRUSES” (Alios BioPharma, Inc., priority 2014, published 2016):

How the values were obtained:
[1] = half life of the triphosphate compound (B); details: triphosphate formed inside the cell
Source text: The compounds (A) and (B), or a pharmaceutically acceptable salt of the foregoing, are described in U.S. Publication Nos. 2013/0165400 and 2015/0051167 and International Publication Nos. WO 2013/142525 and WO 2013/142525, all of which are hereby incorporated by reference in their entireties. Those skilled in the art understand that once compound (A), or a pharmaceutically acceptable salt thereof, is absorbed, the groups attached to 3′ and 5′ positions can be easily removed by esterases, proteases and/or other enzymes. Once inside the cell, the triphosphate (compound (B), or a pharmaceutically acceptable salt thereof) can be formed via metabolization by cellular enzymes.

[2] = tested on: RSV-A Memphis 37b challenge virus; test: human RSV challenge model (viral load in nasal washes by plaque assay and PCR); type: in vivo
Experimental: Healthy adults received one of the following dosing regimens or placebo over 5 days using the human RSV challenge model.
Subjects were given an intranasal inoculation of RSV-A Memphis 37b challenge virus. Administration of compound (A), or a pharmaceutically acceptable salt thereof, began approximately 12 hours after confirmation of RSV infection as determined by the presence of RSV RNA in nasopharyngeal washes. The test compound was administered as an oral-liquid suspension, wherein the drug vehicle was methyl cellulose and sterile water. The placebo was the drug vehicle without the test compound. Second dosages were started 12 hours after administration of the first dosage, and the remaining second dosages were provided in approximate 12 hour intervals. Nasal washes were collected twice daily approximately 36 to 48 hours after RSV inoculation until Day 12. Viral load was detected and quantified from the aliquots of the nasal wash samples using tissue infectivity plaque assays and PCR. (See DeVincenzo, J. P., et al., Am. J. Respir. Crit. Care. Med. (2010) 182(10):1305-1314) Subjects returned for two follow-up visits on Day 16 (±2 days) and Day 28 (±2 days) post-challenge inoculation.

## Nc1ccn([C@@H]2O[C@](CCl)(COP(=O)(O)OP(=O)(O)OP(=O)(O)O)[C@@H](O)[C@H]2F)c(=O)n1 [Compound (B)]
[1]
  half-life: ~17.6 h

## CC(C)C(=O)OC[C@@]1(CCl)O[C@@H](n2ccc(N)nc2=O)[C@H](F)[C@@H]1OC(=O)C(C)C [Compound (A)]
[2]; Day 12, all treated subjects
  RSV RNA: undetectable
[2]; Day 16 follow-up
  RSV RNA: undetectable
[2]; Day 28 follow-up
  RSV RNA: undetectable
[2]; all regimens (750/150 mg, 750/500 mg, 375 mg), oral, 5 days, healthy adults, nasal wash, FIG. 1
  RSV viral load compared to the placebo: marked reduction in RSV viral load
[2]; healthy adults, 5 days dosing
  clinically significant laboratory abnormalities: no clinically significant laboratory abnormalities were observed
  discontinuation of treatment during the study: no subject discontinued treatment
[2]; subjects who received 750 mg on Day 1, within the first 24 hours
  reduction of plaque forming units equivalents (PFUe/mL): multi-log reduction
